This is an account of results in article PMC9916866 (International Journal of Molecular Sciences, 2023).

Read-outs that look alike come from different tables or passages of the source. Positions of bridges follow the written chain, without caps; N, C: chain ends. Residues, ends and D or L forms follow the SMILES beside them.

The target in assay [1] is T1, AT1 receptor (Homo sapiens, UniProt P30556).
T1 sequence (P30556 1-359): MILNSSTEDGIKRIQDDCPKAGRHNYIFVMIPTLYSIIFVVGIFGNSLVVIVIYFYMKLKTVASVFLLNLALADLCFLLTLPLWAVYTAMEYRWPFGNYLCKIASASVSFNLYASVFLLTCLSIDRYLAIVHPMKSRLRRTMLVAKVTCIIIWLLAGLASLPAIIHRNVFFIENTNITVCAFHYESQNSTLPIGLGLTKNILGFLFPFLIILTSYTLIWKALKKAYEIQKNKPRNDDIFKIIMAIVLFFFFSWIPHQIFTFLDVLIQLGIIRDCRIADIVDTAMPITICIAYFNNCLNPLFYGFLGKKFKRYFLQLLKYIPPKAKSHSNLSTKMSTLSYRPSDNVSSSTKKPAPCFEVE
As to the kind of experiment: cell-based. It is filed as cell-based. Details: expressed in transfected cells; host or cells: HEK293T.

In assay [2] the target is T2, AT1 receptor (Rattus norvegicus, UniProt P25095). As to the kind of experiment: cell-based.
For another assay, the target named is T3, human AT2 receptor (Homo sapiens, UniProt P50052).
T3 construct: expressed in transfected cells; host or cells: HEK293T
T3 sequence (P50052 1-363): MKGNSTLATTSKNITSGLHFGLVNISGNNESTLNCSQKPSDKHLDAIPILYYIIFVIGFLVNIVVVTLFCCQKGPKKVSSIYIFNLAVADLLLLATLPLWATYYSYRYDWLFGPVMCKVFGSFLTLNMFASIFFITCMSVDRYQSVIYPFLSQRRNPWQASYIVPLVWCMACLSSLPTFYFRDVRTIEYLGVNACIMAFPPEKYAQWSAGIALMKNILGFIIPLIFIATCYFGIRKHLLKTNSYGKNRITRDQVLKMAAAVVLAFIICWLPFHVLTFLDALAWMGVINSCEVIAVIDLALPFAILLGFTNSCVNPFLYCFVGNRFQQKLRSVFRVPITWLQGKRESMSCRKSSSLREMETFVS
As to the kind of experiment: biochemical. Type of assay: binding.

In assay [3] the target is T1, AT1 receptor. As to the kind of experiment: cell-based.
Assay [4] has as its target T2, AT1 receptor. As to the kind of experiment: biochemical. It is filed as binding. The settings on record: read-out: inhibition of the specific labelling by Cy5-AngII, AT1.
The target in assay [5] is T2, AT1 receptor. As to the kind of experiment: cell-based. The conditions noted are these: read-out: inhibition of AngII-induced ERK1/2 phosphorylation (western blot). A general note: A western blot detects proteins with antibodies after separation by electrophoresis.
Assay [6] deals with T1, AT1 receptor. As to the kind of experiment: biochemical. It is filed as binding. More on the design: expressed in transfected cells; host or cells: HEK293T.

T2 sequence (P25095 whole entry, looked up): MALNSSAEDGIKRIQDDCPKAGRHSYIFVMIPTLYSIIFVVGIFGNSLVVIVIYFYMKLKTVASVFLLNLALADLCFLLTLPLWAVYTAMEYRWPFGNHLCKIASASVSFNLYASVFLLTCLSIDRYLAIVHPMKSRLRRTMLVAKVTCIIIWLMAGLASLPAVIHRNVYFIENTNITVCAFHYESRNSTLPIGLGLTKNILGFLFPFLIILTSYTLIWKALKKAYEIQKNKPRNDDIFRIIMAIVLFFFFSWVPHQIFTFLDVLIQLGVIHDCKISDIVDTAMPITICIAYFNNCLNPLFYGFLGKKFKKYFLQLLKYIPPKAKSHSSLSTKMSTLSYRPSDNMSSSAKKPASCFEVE

One may read the IC50 as the midpoint of a concentration-inhibition curve. For orientation: Ki means the dissociation constant of the complex between target and ligand, obtained from inhibition or displacement. Turning to `CC(C)[C@@H]1NC(=O)[C@H](Cc2c[nH]c3ccccc23)NC(=O)[C@H](Cc2ccccc2)NC(=O)[C@H](Cc2c[nH]cn2)NC(=O)[C@@H](N)CSSC[C@@H](C(=O)N2CCC[C@H]2C(=O)O)NC1=O` [A-CTX-cMila] (H-CHFWVCP-OH; disulfide 1-6), the half-maximal inhibitory concentration (IC50) against AT1 receptor [1] is 28.5 ± 12 µM; against AT1 receptor [2], 23.7 ± 4.6 µM; at AT1 receptor [3] it was 15.6 ± 3 µM. Besides, the Ki on human AT2 receptor was found to be 27.5 ± 2.1 µM; at AT1 receptor [6], 0.32 ± 0.13 µM. Also, the Kb was 4.1 ± 3.1 µM on AT1 receptor [3] (KB, β-arrestin 2 recruitment) and 2 µM at AT1 receptor [3] (pA2, β-arrestin 2 recruitment). For the same compound, the inhibition at 100 µM on AT1 receptor [4] is 74%. Further, at AT1 receptor [5], the inhibition at 20 µM turned out to be 89%.
